Experimental data as given in PubChem BioAssay (NCI).
Several values for one entry are separate records, joined by “and”; a condition that tells them apart may be missing. Equal values may be shown once.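 Results reflect a 48-hour exposure of cells in 96-well plates to compound at five concentrations. GI50 is the concentration that inhibits growth by half. Definition used: TGI = concentration required for complete inhibition of growth.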

Test system: MDA-MB-468 breast
Assay: NCI anticancer screen, dose series, 48 h

COc1ccc(Cl)cc1Nc1nc(C(F)(F)F)ccc1C(=O)N/N=C/c1ccc([N+](=O)[O-])cc1
GI50: 1130 nM
TGI: 3680 nM

NC(=O)c1cc(-c2ccncc2)cc(-c2ccccc2)c1N
GI50: 6440 nM
TGI: > 25000 nM

Cc1cc(N2CCN(C)CC2)nc(NCc2cc(Nc3ccnc4cc(Cl)ccc34)ccc2F)n1
GI50: 1670 nM
TGI: 3590 nM

COc1ccc2c(c1)[C@]1(C[C@H]1c1ccc3c(/C=C/c4ccc(CN5C[C@@H](C)O[C@@H](C)C5)cc4)n[nH]c3c1)C(=O)N2
GI50: 2990 nM
TGI: > 92400 nM

IP(CCCCCCCCCCSc1n(Cc2ccc3ccccc3c2)c(-c2ccccc2)c(-c2ccccc2)[n+]1Cc1ccc2ccccc2c1)(c1ccccc1)(c1ccccc1)c1ccccc1
GI50: 267 nM
TGI: 918 nM

Cc1c(C)c2c(c(C)c1NC(=O)/C=C\C(=O)O)CCC(C)(CCCC(C)CCCC(C)CCCC(C)C)O2 (stereo unspecified)
GI50: 1990 nM
TGI: 3980 nM

N#CC(C#N)=Cc1c(-c2ccccc2)[nH]c2ccccc12
GI50: 955 nM
TGI: 5210 nM

CCN(CC)C(=O)CC1=C(C)/C(=C/c2[nH]c(-c3ccc[nH]3)cc2OC)N=C1C
GI50: 572 nM
TGI: 17900 nM

CN(Cc1cnc(N)nc1N)c1ccc(C(=O)O)cc1
GI50: > 100000 nM
TGI: > 100000 nM

CC1=CC[C@@H]2C(C)(C)C(=O)CC[C@@]2(C)[C@@H]1COc1ccc2ccc(=O)oc2c1
GI50: 4830 nM
TGI: 35900 nM

CN(CCC#N)c1ccc(/C=C(\C#N)c2cccc(C(F)(F)F)c2)cc1
GI50: 797 nM
TGI: > 100000 nM

Oc1c(C(Nc2cccc3ccccc23)c2ccccc2)ccc2cccnc12 (stereo unspecified)
GI50: 1790 nM
TGI: 4310 nM

Cc1cc2nc(C(Cl)Cl)nc(-c3cccs3)n2n1
GI50: 314 nM
TGI: 1540 nM

Cc1cc(Cc2cc(C)c(O)c(C)c2)cc(C)c1O
GI50: 2550 nM
TGI: 9750 nM

Cc1cc2cccnc2c2ncccc12
GI50: 2030 nM
TGI: 5480 nM

COc1cc(N2CCN(C(C)C)CC2)ccc1Nc1nc(Nc2cccc3ncccc23)c2cc[nH]c2n1
GI50: 3590 nM
TGI: 8840 nM

NC(C/[N+]([O-])=N/O)C(=O)O (stereo unspecified)
GI50: 7310 nM
TGI: > 500000 nM

CCCCN(CCCC)c1ccc(C(=N)c2ccc(N(C)C)cc2)cc1
GI50: 249 nM
TGI: 966 nM

COc1ccc(-c2nn(-c3ccc(NC(=O)c4ccc(Cl)c(C(F)(F)F)c4)cc3)cc2-c2ccncc2)cc1Cl
GI50: 1600 nM
TGI: > 100000 nM

COc1cc(-c2n/c(=C\c3c(O)[nH]c4ccc(Cl)cc34)cc3c2=Nc2ccccc2-3)cc(OC)c1OC
GI50: 1730 nM
TGI: 4260 nM

Cn1cc(C2=C(c3c4n(c5ccccc35)CCCC4)C(=O)NC2=O)c2ccccc21
GI50: 5310 nM
TGI: > 25000 nM

COc1ccc(C[n+]2c3ccccc3n3c4ccc(N)cc4ccc32)c(OC)c1OC
GI50: 275 nM
TGI: 1420 nM

COc1cc(NS(C)(=O)=O)ccc1Nc1c2ccccc2nc2c(C)cccc12
GI50: 236 nM and 298 nM
TGI: 779 nM and 1670 nM

COc1cc2ccccc2c2cc([N+](=O)[O-])oc12
GI50: 1030 nM
TGI: 2360 nM

CN1CCN(CCCOc2cccc3nc(Nc4ccc(Cl)c(F)c4)ccc23)CC1
GI50: 1720 nM
TGI: 3320 nM

COc1cc2c(c(OC)c1OC)C(=O)CC(c1cccc(NC(=O)c3ccc(Br)cc3)c1)O2 (stereo unspecified)
GI50: 1850 nM
TGI: 8010 nM

CN1CCN(c2ccc(-c3ccc4ncc(C#N)c(Nc5ccc(F)c(Cl)c5)c4c3)cc2)CC1
GI50: 431 nM
TGI: 2100 nM

O=C(/C=C/c1ccccc1)c1c[nH]c2ccccc2c1=O
GI50: 1800 nM
TGI: 4410 nM

Cc1onc(-c2c(F)cccc2Cl)c1-c1ncc(-c2ccc(Cl)cc2)o1
GI50: 3490 nM
TGI: > 100000 nM

Cc1ccc(NC(=O)c2ccc(CN3CCN(C)CC3)c(C(F)(F)F)c2)cc1Oc1ccc(-c2[nH]nc3ncnc(N)c23)cc1
GI50: 12200 nM
TGI: 43900 nM

C=C1C(=O)O[C@H]2[C@H]1CC/C(Cn1cc(CNCCc3c[nH]c4ccc(Cl)cc34)nn1)=C\CC[C@@]1(C)O[C@@H]21
GI50: 2190 nM
TGI: 9190 nM

Oc1ccc(CSc2nnc(-c3ccncc3)n2-c2ccccc2)c2cccnc12
GI50: 1350 nM
TGI: 16100 nM

O=C(CCCn1c(=O)c2sc3ccccc3c2n2nnc(-c3ccccc3)c12)NCCc1cnc[nH]1
GI50: 1690 nM
TGI: 3680 nM

O=[N+]([O-])c1cc([N+](=O)[O-])c(Cl)c(Cl)c1Cl
GI50: 250 nM
TGI: 723 nM

C=CCn1c(=O)c2cnc(Nc3ccc(N4CCN(C)CC4)cc3)nc2n1-c1ccc2c(n1)[C@@](O)(CC)CC2
GI50: 189 nM
TGI: 698 nM

O=C(/C=C1\C(=O)N(Cc2ccc([N+](=O)[O-])cc2)c2ccccc21)c1ccc(OCCN2CCCCC2)cc1
GI50: 1110 nM
TGI: 2490 nM

O=C(/C=C/C12c3ccccc3C(c3ccccc31)C1C(=O)N(c3ccccc3)C(=O)C12)c1ccc(Cl)cc1 (stereo unspecified)
GI50: 1880 nM
TGI: 5870 nM

O=C(Nc1ccc(F)cc1)c1cc(-c2ccc(F)cc2F)ccc1O
GI50: 2210 nM
TGI: 7480 nM

COc1cc(/C=C/C(=O)c2cc(OC)c(OC)c(OC)c2)ccc1Oc1nc(NCCO)nc(N2CCOCC2)n1
GI50: 1710 nM
TGI: 4300 nM

COc1cc(/C=N/Nc2ncnc3c2cnn3C(C)C)ccc1O
GI50: 9320 nM
TGI: 24600 nM

Cc1oc2nc[nH]c(=O)c2c1C(=O)/C=C/c1ccc(Cl)cc1
GI50: 1380 nM
TGI: 3870 nM

COc1cccc(C(=O)Nc2ccc(CN3CCc4nc5cc(OC)c(OC)cc5cc43)cc2)c1
GI50: 4010 nM
TGI: 31900 nM

COc1cc(-c2nn(-c3ccc(NC(=O)Nc4ccc(Cl)c(Cl)c4)cc3)cc2-c2ccncc2)ccc1Cl
GI50: 2150 nM
TGI: 5720 nM
